From the NIST ThermoML archive (doi:10.1021/acs.jced.6b00180)
± gives the expanded uncertainty stated by the source.

What was measured:
[1] = Liquid, Ebulliometric method (Recirculating still)
[2] = refractive index (Na D-line) (dimensionless); settings: 293.15 K; 101.33 kPa; Liquid; Standard Abbe refractometry
[3] = Boiling temperature at pressure P; settings: 101.33 kPa; Liquid; Ebulliometric method (Recirculating still)

Row | Structure (SMILES) | refractive index [2] | Boiling temperature at pressure P [3] [°C] | also measured
1 | C=CC(=C)C [2-methyl-1,3-butadiene] | 1.4218 ± 0.0005 |  | vapor or sublimation pressure ([1]; 336.35 K): 250 ± 13 kPa
2 | C1CCCC1 [cyclopentane] | 1.4064 ± 0.0005 |  | vapor or sublimation pressure ([1]; 352.85 K): 250 ± 13 kPa
3 | CCO [ethanol] | 1.3613 ± 0.0005 | 78.4 ± 1 | vapor or sublimation pressure ([1]; 351.55 K): 101.3 ± 5.1 kPa
4 | CO [methanol] | 1.3286 ± 0.0005 | 64.7 ± 1 | 
5 | CCC(C)C [2-methylbutane] | 1.3535 ± 0.0005 |  | vapor or sublimation pressure ([1]; 330.05 K): 250 ± 13 kPa
6 | CC=C(C)C [2-methyl-2-butene] | 1.3876 ± 0.0005 |  | vapor or sublimation pressure ([1]; 341.15 K): 250 ± 13 kPa
7 | CC(C)=O [acetone] | 1.3586 ± 0.0005 | 56.2 ± 1 | vapor or sublimation pressure ([1]; 329.35 K): 101.3 ± 5.1 kPa
8 | CCCCC [pentane] | 1.3578 ± 0.0005 |  | vapor or sublimation pressure ([1]; 338.35 K): 250 ± 13 kPa
9 | C1=CCCC1 [cyclopentene] | 1.4224 ± 0.0005 |  | vapor or sublimation pressure ([1]; 347.35 K): 250 ± 13 kPa
10 | CCCCCC [hexane] | 1.3748 ± 0.0005 |  | 
